From US20110159515A1, “COMPOSITIONS AND METHODS FOR THE RAPID GROWTH AND DETECTION OF MICROORGANISMS” (SOLUS SCIENTIFIC SOLUTIONS LIMITED, priority 2008, published 2011)
“And” between values parts separate entries of the source, which are not always exact repeats. Equal values may be shown once. Read-outs that look alike come from different tables or passages of the source.

Key:
[1] = system: Salmonella; experiment: Growth response in tryptic soy broth with additive, A620 turbidity; type: cell-based, Salmonella aberdeen; conditions: for A620: Salmonella
[2] = system: E. coli; experiment: as above; type: cell-based; conditions: for A620: E. coli
[3] = system: L. innocua; experiment: Direct binding Salmonella assay (chemiluminescence immunosorbent); conditions: 10^6 L. innocua; detergent level not given
Procedure: The sample was heated to 100° C. for 5 minutes and allowed to cool. One hundred microlitres of each test sample was added directly to a well of a solid white 96 well high binding microtitre plate (Greiner Bio One) and incubated at 37° C. for 30 minutes. During incubation, the lipid A portion of the LPS binds to the surface of the plate via non-covalent hydrophobic interactions (FIG. 1a (1), FIG. 1b(1)).
(§1) The final concentration of antibody per well was 50 ng. The plate-bound sample (Salmonella LPS/core oligosaccharide) and antibody were incubated in the coated wells for 30 minutes as 37° C. Following incubation, plates were washed three times in wash buffer and pat dried prior to detection (FIG. 1a(2), FIG. 1b(2)).
(§2) When the anti-Salmonella is directly labelled with acridinium ester, plates were placed into a luminometer. 30 μl of trigger solution A and 60 μl of trigger solution B was added to each well of the microtitre plate to initiate light output from conjugated acridinium ester (FIG. 1a(3)). The luminometer settings were as follows:
(§3) When the anti-Salmonella antibody is not labelled, a second binding member, a goat anti-mouse IgG2b conjugate is used. Post column IgG2b was diluted 1:100 in a diluent comprising 3% (w/v) non-fat milk powder and 0.05% (v/v) Tween 20 and 100 ul of this solution was added to each well of the plate (FIG. 1b(3)). Following incubation at 37° C. for 60 minutes the plate was washed four times in wash buffer, dried and read as above (FIG. 1b(4)).
Monoclonal antibody (1:100 dilution) was incubated with either Salmonella or Listeria to determine optimum incubation times:
Monoclonal antibody (1:200 dilution) was incubated with either Salmonella or Listeria to determine optimum incubation times: […]

[4] = system: S. aberdeen; experiment: as above; conditions: detergent level not given
Procedure: After 5 hours of culture, a 2 ml aliquot of the sample was removed and SDS was added to a final concentration of 0.5% (w/v). The sample was heated to 100° C. for 5 minutes and allowed to cool. One hundred microlitres of each test sample was added directly to a well of a solid white 96 well high binding microtitre plate (Greiner Bio One) and incubated at 37° C. for 30 minutes. During incubation, the lipid A portion of the LPS binds to the surface of the plate via non-covalent hydrophobic interactions (FIG. 1a (1), FIG. 1b(1)).
as §1, §2, §3
The wells of an assay plate are coated with standard concentrations of bacteria for 1 hour at 37° C. These standard concentrations are: 10^6, 10^5, 5×10^4, 2.5×10^4, 10^4 and 5×10^3 and blank wells containing 10^6 E. coli. The fractions to be tested are diluted 1:100 in assay buffer and […] is added to each well and incubated at 37° C. for 20 minutes. The wells are then read on the luminometer, as above.

[5] = system: Staphylococcus aureus
[6] = system: Shigella flexneri
[7] = 5 mg/litre brilliant green, high absorbance values due to absorbance of Brilliant Green
[8] = 7 mg/litre brilliant green, high absorbance values due to absorbance of Brilliant Green
[9] = 10 mg/litre brilliant green, high absorbance values due to absorbance of Brilliant Green
[10] = 10^1 bacteria (species not given)
[11] = 10^2 bacteria (species not given)
[12] = 10^3 bacteria (species not given)
[13] = 10^4 bacteria (species not given)
[14] = 10^5 bacteria (species not given)
[15] = 10^6 bacteria (species not given)
[16] = 2 to 16 g/L, tryptic soy broth, 37° C., 18 hours

CCN(CC)c1ccc(C(=C2C=CC(=[N+](CC)CC)C=C2)c2ccccc2)cc1 [brilliant green]
levels at which growth of Salmonella is limited [1]: ≥ 0.3 mg/L | optimum level for growth of Salmonella with inhibition of competing bacteria ([1]; FIG. 4): 0.15 mg/L | A620 ([1]; 0.15 mg/litre brilliant green): 0.255 and 0.229 | A620 ([1]; 0.3 mg/litre brilliant green): 0.046 and 0.041 | A620 ([1]; 1 mg/litre brilliant green): 0.057 and 0.040 | A620 ([1]; 3 mg/litre brilliant green): 0.072 and 0.061 | A620 [1, 7]: 0.282 and 0.256 | A620 [1, 8]: 0.606 and 0.569 | A620 [1, 9]: 0.614 and 0.607 | levels at which growth of E. coli is limited [2]: ≥ 0.0003 g/L | A620 ([2]; 0.15 mg/litre brilliant green): 0.102 and 0.118 | A620 ([2]; 0.3 mg/litre brilliant green): 0.043 and 0.062 | A620 ([2]; 1 mg/litre brilliant green): 0.037 and 0.035 | A620 ([2]; 3 mg/litre brilliant green): 0.041 and 0.034 | A620 [2, 7]: 0.250 and 0.230 | A620 [2, 8]: 0.524 and 0.500 | A620 [2, 9]: 0.624 and 0.665

C[C@H](CCC(=O)[O-])[C@H]1CC[C@H]2[C@@H]3[C@H](O)C[C@@H]4C[C@H](O)CC[C@]4(C)[C@H]3C[C@H](O)[C@]12C.[Na+] [SODIUM CHOLATE]
signal, release and detection of core oligosaccharide [3]: 7495 relative light units | signal, release and detection of core oligosaccharide [4, 10]: 8858 relative light units | signal, release and detection of core oligosaccharide [4, 11]: 8921 relative light units | signal, release and detection of core oligosaccharide [4, 12]: 12088 relative light units | signal, release and detection of core oligosaccharide [4, 13]: 67710 relative light units | signal, release and detection of core oligosaccharide [4, 14]: 529553 relative light units | signal, release and detection of core oligosaccharide [4, 15]: 917476 relative light units

CCCCCCCCCCCCCCCC[N+](C)(C)C.[Cl-] [CTAC, cetyltrimethyammoniumchloride]
signal, release and detection of core oligosaccharide [3]: 7892 relative light units | signal, release and detection of core oligosaccharide [4, 10]: 10321 relative light units | signal, release and detection of core oligosaccharide [4, 11]: 12485 relative light units | signal, release and detection of core oligosaccharide [4, 12]: 22758 relative light units | signal, release and detection of core oligosaccharide [4, 13]: 205093 relative light units | signal, release and detection of core oligosaccharide [4, 14]: 792108 relative light units | signal, release and detection of core oligosaccharide [4, 15]: 881712 relative light units

O=C([O-])CC(O)(CC(=O)[O-])C(=O)[O-].[Na+].[Na+].[Na+] [sodium citrate, tri-sodium citrate]
levels at which growth of Staphylococcus is limited [5]: ≥ 5 g/L | growth response of Shigella over those of Staphylococcus and E. coli ([6]; 15 g/L): significantly increased | effect on growth of Shigella ([6]; FIG. 6): enhanced | levels at which growth of E. coli is limited [2]: ≥ 5 g/L

CCCCCCCCCCCCCCCC[N+](C)(C)C.[Br-] [CTAB, cetyltrimethyammonium bromide]
signal, release and detection of core oligosaccharide [3]: 7593 relative light units | signal, release and detection of core oligosaccharide [4, 10]: 8901 relative light units | signal, release and detection of core oligosaccharide [4, 11]: 9746 relative light units | signal, release and detection of core oligosaccharide [4, 12]: 21541 relative light units | signal, release and detection of core oligosaccharide [4, 13]: 203215 relative light units | signal, release and detection of core oligosaccharide [4, 14]: 775871 relative light units | signal, release and detection of core oligosaccharide [4, 15]: 866920 relative light units

O=S(=O)([O-])SSS(=O)(=O)[O-].[Na+].[Na+] [sodium tetrathionate]
levels at which growth of Salmonella is inhibited [1]: above 16 g/L | effect on growth of Salmonella [1, 16]: un-affected or promoted | effect on the growth of Salmonella ([1]; 8 g/litre): clear enhancing effect | A620 ([1]; 4 g/litre tetrathionate): 0.187 and 0.179 | A620 ([1]; 8 g/litre tetrathionate): 0.818 and 0.848 | A620 ([1]; 12 g/litre tetrathionate): 0.226 and 0.270 | A620 ([1]; 15 g/litre tetrathionate): 0.167 and 0.186 | A620 ([1]; 20 g/litre tetrathionate): 0.150 and 0.139 | A620 ([1]; 25 g/litre tetrathionate): 0.086 and 0.099 | A620 ([1]; 30 g/litre tetrathionate): 0.059 and 0.073 | levels in a culture media that significantly inhibit the growth of Salmonella spp ([1]; summary statement): above 20 g/L | effect on growth of Staphylococcus [5, 16]: inhibited | effect on growth of Shigella [6, 16]: inhibited | levels that inhibit the growth of E. coli [2]: > 4 g/L | effect on growth of E. coli [2, 16]: inhibited | A620 ([2]; 4 g/litre tetrathionate): 0.096 and 0.104 | A620 ([2]; 8 g/litre tetrathionate): 0.078 and 0.073 | A620 ([2]; 12 g/litre tetrathionate): 0.053 and 0.048 | A620 ([2]; 15 g/litre tetrathionate): 0.011 | A620 ([2]; 20 g/litre tetrathionate): 0.015 and 0.018 | A620 ([2]; 25 g/litre tetrathionate): 0.023 and 0.022 | A620 ([2]; 30 g/litre tetrathionate): 0.021 and 0.020

TRITON X-100
signal, release and detection of core oligosaccharide [3]: 7076 relative light units | signal, release and detection of core oligosaccharide [4, 10]: 9981 relative light units | signal, release and detection of core oligosaccharide [4, 11]: 10494 relative light units | signal, release and detection of core oligosaccharide [4, 12]: 22570 relative light units | signal, release and detection of core oligosaccharide [4, 13]: 203602 relative light units | signal, release and detection of core oligosaccharide [4, 14]: 867745 relative light units | signal, release and detection of core oligosaccharide [4, 15]: 455886 relative light units

ammonium ferric citrate
effect on growth of Salmonella ([1]; levels above 0.25 g/l, FIG. 5): unaffected | levels at which growth of Staphylococcus is limited [5]: ≥ 0.25 g/L | optimum level for growth of Shigella ([6]; FIG. 5): 0.25 g/L | levels at which growth of E. coli is limited [2]: ≥ 0.25 g/L
